pIC50, pKd: −log10 of the molar value. Counter-ions that a name gives are not always drawn.
What was measured:
PI3Kδ = target: T1, PI3Kδ (Homo sapiens, UniProt O00329); experiment: Enzyme binding assay (KINOMEscan, DiscoveRx); conditions: PIK3Cδ_h
T1 construct: purchased DiscoveRx Corporation, San Diego (contract service, KINOMEscan)
T1 sequence (O00329 1-1044): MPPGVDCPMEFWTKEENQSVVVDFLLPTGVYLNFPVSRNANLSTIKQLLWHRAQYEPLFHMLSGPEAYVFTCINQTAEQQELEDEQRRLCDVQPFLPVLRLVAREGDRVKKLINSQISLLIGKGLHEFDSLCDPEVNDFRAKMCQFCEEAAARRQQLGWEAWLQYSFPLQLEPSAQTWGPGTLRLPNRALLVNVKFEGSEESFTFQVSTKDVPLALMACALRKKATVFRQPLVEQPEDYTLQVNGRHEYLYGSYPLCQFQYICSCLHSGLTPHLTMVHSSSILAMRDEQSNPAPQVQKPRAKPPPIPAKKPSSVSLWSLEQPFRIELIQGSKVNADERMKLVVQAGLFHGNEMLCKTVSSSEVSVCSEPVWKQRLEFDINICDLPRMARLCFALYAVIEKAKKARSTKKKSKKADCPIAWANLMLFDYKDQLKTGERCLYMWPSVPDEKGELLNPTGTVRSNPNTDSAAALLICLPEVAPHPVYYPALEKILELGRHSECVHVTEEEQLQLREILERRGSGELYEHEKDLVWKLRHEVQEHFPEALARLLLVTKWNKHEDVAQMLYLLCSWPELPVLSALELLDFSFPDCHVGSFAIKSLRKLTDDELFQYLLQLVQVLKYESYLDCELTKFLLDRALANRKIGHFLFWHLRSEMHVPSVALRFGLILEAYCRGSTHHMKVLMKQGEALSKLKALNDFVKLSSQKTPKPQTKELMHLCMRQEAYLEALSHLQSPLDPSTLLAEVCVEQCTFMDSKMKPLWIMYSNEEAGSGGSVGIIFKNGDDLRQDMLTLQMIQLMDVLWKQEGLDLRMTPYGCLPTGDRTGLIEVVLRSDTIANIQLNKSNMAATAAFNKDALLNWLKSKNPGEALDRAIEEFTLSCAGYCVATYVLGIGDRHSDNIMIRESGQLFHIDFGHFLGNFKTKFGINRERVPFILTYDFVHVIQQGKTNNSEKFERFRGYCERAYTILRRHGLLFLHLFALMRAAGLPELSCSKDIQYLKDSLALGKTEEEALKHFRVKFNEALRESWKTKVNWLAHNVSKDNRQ
How it was run: (§1)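 KINOMEscan readout; values are kinase binding affinities.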

kinase enzymes [1] = target: T2, kinase enzymes (Homo sapiens, UniProt P48736); experiment: Enzyme binding assay (KINOMEscan, DiscoveRx), further kinases of Table A; conditions: PIK3Cγ_h
T2 construct: purchased DiscoveRx Corporation, San Diego (contract service, KINOMEscan)
T2 sequence (P48736 whole entry): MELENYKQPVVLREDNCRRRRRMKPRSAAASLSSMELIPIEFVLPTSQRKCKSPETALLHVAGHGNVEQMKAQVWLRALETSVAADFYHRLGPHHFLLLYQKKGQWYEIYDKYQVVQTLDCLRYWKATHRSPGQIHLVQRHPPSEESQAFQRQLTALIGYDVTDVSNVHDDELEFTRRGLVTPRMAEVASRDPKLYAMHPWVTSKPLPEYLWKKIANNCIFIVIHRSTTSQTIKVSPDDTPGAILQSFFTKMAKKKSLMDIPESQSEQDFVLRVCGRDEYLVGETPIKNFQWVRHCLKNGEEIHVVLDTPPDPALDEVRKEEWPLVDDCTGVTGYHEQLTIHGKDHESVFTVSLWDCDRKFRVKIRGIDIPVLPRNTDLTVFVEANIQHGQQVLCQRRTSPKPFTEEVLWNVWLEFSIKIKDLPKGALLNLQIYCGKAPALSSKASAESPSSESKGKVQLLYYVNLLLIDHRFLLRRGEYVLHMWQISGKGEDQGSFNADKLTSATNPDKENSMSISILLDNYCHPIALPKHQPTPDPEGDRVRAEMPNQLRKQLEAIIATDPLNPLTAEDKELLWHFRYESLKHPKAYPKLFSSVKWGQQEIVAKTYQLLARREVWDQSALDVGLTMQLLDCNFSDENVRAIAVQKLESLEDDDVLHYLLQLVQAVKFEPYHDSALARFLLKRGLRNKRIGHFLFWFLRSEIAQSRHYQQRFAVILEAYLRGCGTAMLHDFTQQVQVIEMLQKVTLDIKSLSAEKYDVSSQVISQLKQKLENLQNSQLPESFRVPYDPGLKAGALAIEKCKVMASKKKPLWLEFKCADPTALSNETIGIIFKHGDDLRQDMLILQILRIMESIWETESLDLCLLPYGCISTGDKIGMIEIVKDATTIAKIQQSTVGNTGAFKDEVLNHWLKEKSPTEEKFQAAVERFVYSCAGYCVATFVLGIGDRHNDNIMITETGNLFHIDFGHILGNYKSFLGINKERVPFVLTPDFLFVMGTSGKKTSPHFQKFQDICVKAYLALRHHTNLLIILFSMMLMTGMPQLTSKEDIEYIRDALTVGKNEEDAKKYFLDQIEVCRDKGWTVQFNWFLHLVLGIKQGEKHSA
How it was run: as §1

kinase enzymes [2] = target: T3, kinase enzymes (Homo sapiens, UniProt P42336); experiment: as above; conditions: PIK3Cα_h
T3 construct: purchased DiscoveRx Corporation, San Diego (contract service, KINOMEscan)
T3 sequence (P42336 whole entry): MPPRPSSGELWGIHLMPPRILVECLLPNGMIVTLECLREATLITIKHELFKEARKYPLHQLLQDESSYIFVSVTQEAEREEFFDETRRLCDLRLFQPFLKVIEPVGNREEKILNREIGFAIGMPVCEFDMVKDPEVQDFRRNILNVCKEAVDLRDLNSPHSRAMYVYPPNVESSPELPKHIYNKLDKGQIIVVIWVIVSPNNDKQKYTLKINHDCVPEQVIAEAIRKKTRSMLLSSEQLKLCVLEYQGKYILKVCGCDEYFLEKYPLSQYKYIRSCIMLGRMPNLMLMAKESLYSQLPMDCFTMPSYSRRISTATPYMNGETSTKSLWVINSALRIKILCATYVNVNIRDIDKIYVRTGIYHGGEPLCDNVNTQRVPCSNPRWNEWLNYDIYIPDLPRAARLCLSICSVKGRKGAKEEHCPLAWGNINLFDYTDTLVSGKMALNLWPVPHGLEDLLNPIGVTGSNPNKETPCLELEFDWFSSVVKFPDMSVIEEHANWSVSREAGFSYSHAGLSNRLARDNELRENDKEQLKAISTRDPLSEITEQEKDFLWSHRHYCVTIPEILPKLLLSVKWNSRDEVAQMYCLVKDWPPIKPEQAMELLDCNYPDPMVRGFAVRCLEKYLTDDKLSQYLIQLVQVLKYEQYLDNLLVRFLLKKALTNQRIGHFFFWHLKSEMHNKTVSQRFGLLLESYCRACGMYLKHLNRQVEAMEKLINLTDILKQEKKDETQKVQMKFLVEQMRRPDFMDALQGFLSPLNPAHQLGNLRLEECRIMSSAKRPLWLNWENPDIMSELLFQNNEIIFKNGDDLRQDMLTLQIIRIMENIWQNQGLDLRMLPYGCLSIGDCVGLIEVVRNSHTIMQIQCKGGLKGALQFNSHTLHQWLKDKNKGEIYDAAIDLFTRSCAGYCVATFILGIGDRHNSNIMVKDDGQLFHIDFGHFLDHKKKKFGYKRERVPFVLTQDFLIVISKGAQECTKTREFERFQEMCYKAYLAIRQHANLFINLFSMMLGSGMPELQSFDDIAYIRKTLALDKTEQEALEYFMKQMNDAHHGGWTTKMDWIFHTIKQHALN
How it was run: as §1

kinase enzymes [3] = target: T4, kinase enzymes (Homo sapiens, UniProt P42345); experiment: as above; conditions: MTOR_h
T4 construct: purchased DiscoveRx Corporation, San Diego (contract service, KINOMEscan)
How it was run: as §1

[4] = tested on: Akt phosphorylated at Ser473 in PC-3 cells; experiment: Cellular assay: phosphorylation of Akt at Ser473 in PC-3 cells (MSD ELISA); type: cell-based; conditions: Homo sapiens, PC-3, 1 h, PC-3 cells, 60 min compound incubation, MSD ELISA; read-out: IC50 pAkt_S473
How it was run: (§2)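 After lysis of treated cells (60 min, 37° C, 0.3% DMSO), phospho-Akt levels were measured by MSD electrochemiluminescence ELISA. Potency was derived from concentration-response curves fitted over five concentrations.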

PI3Kβ = target: T5, PI3Kβ (Homo sapiens, UniProt P42338); experiment: Enzyme binding assay (KINOMEscan, DiscoveRx); conditions: PIK3Cβ_h, read-out: Kd PIK3Cβ_h
T5 construct: purchased DiscoveRx Corporation, San Diego (contract service, KINOMEscan)
T5 sequence (P42338 whole entry): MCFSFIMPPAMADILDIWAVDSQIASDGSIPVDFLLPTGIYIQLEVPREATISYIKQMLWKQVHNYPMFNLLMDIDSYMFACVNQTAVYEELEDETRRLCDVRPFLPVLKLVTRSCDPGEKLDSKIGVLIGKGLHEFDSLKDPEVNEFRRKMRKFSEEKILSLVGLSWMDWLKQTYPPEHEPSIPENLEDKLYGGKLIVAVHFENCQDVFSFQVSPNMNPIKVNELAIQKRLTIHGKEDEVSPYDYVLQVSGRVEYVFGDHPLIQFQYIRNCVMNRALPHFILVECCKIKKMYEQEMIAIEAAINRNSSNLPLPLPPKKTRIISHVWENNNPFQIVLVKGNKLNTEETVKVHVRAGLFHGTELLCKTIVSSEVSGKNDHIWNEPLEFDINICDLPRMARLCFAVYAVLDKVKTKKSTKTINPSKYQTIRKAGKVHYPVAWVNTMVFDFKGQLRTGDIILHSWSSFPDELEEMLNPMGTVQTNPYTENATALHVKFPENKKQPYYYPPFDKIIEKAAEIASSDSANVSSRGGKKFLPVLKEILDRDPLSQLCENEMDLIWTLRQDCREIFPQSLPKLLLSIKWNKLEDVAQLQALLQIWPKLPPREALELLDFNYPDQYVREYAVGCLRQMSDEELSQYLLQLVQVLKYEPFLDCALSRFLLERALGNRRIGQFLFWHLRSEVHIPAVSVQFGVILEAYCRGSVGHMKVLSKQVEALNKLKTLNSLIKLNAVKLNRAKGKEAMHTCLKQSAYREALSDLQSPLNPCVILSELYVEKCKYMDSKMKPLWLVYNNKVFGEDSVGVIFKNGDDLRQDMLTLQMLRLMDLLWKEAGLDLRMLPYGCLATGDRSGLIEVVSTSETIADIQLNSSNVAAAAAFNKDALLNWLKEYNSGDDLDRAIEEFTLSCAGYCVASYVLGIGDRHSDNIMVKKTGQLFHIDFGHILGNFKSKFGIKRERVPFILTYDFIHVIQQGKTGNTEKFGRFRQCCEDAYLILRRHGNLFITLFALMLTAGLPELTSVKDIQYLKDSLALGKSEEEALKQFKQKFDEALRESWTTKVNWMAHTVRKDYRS
How it was run: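 KINOMEscan binding platform; read-out is the inhibitor binding constant Kd (nM).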

[5] = tested on: Akt phosphorylated at Thr308 in PC-3 cells; experiment: Cellular assay: phosphorylation of Akt at Thr308 in PC-3 cells (MSD ELISA); type: cell-based; conditions: Homo sapiens, PC-3, 1 h, PC-3 cells, 60 min compound incubation, MSD ELISA; read-out: IC50 pAkt_Thr308
How it was run: as §2

Structure (SMILES)	melting point	pKd (PI3Kδ)	pKd (kinase enzymes [1])	pKd (kinase enzymes [2])	pKd (kinase enzymes [3])	pIC50 [4]	pKd (PI3Kβ)	pIC50 [5]
C[C@@H](Nc1cc(F)cc(F)c1)c1cc(C(=O)NCCN(C)C)cc2ncc(N3CCOCC3)nc12 (as salt: HCl) [Compound 184a]	80 °C	–	–	–	–	–	–	–
C[C@@H](Nc1cc(F)cc(F)c1)c1cc(C(=O)NCCN(C)C)cc2ncc(N3CCOCC3)nc12 (as salt: sulfonic acid salt) [Compound 184c]	74 °C	–	–	–	–	–	–	–
C[C@@H](Nc1cc(F)cc(F)c1)c1cc(C(=O)NCCN(C)C)cc2ncc(N3CCOCC3)nc12 (as salt: sulfuric acid salt) [Compound 184b]	270 °C	–	–	–	–	–	–	–
CC(Nc1cc(F)cc(F)c1)c1cc(CNCC(F)(F)F)cc2ncc(N3CCOCC3)nc12 (single isomer, unassigned) (as salt: HCl) (hydrate or solvate) [Compound 163]	239 °C	–	–	–	–	–	–	–
CC(Nc1cc(F)cc(F)c1)c1cc(CN2CCO[C@@H](CO)C2)cc2ncc(N3CCOCC3)nc12 (single isomer, unassigned) (as salt: HCl) [Compound 193]	80 °C	–	–	–	–	–	–	–
CC(Nc1cc(F)cc(F)c1)c1cc(CN2CCO[C@H](CO)C2)cc2ncc(N3CCOCC3)nc12 (single isomer, unassigned) (as salt: HCl) [Compound 194]	80 °C	–	–	–	–	–	–	–
COC1CN(Cc2cc(C(C)Nc3cc(F)cc(F)c3)c3nc(N4CCOCC4)cnc3c2)CC1OC (single isomer, unassigned) (as salt: hydrochloride) [Compound 205]	80 °C	–	–	–	–	–	–	–
CC1CN(C(=O)c2cc(C3CCCN3c3cc(F)cc(F)c3)c3nc(N4CCOCC4)cnc3c2)CC(C)N1 (centres unmarked) [Compound 39]	80 °C	–	–	–	–	–	–	–
CC(Nc1cc(F)cc(F)c1)c1cc(-c2cc[nH]n2)cc2ncc(N3CCOCC3)nc12 (centres unmarked) [Compound 304]	–	5.17	4.70	5.14	< 4.52	< 6.29	7.21	6.53
CN(Cc1cc(F)cc(F)c1)c1cc(C(=O)N2CCNC(C(F)(F)F)C2)cc2ncc(N3CCOCC3)nc12 (centres unmarked) [Compound 319b]	–	5.99	< 4.52	5.36	< 4.52	< 6.29	7.23	< 6.29
CN(C)C(=O)c1cc(CNc2cc(F)cc(F)c2)c2nc(N3CCOCC3)cnc2c1 [Compound 332]	–	5.37	4.67	5.53	< 4.52	~6.50	7.82	6.95
CC(Nc1cccc(F)c1)c1cc(C(=O)NC[C@@H](C)O)cc2ncc(N3CCOCC3)nc12 (some centres unmarked) [Compound 338]	–	5.53	5.36	5.63	< 4.52	6.56	7.92	7.01

Second part, the molecule after the results:

melting point	pKd (PI3Kδ)	pKd (kinase enzymes [1])	pKd (kinase enzymes [2])	pKd (kinase enzymes [3])	pIC50 [4]	pKd (PI3Kβ)	pIC50 [5]	Structure (SMILES)
–	5.83	5.09	5.47	4.67	7.34	7.77	7.59	CC(Nc1cc(F)cc(F)c1)c1cc(C(C)(C)O)cc2ncc(N3CCOCC3)nc12 (centres unmarked) [Compound 341]
–	6.00	5.01	5.64	< 4.52	7.85	8.70	7.68	CN[C@H]1CCN(C(=O)c2cc(NCc3cc(F)cc(F)c3)c3nc(N4CCOCC4)cnc3c2)C1 [Compound 352]
–	5.62	4.55	5.09	< 4.52	< 6.29	7.20	< 6.29	Cc1c(F)cccc1CN(C)c1cc(C(=O)N(C)C)cc2ncc(N3CCOCC3)nc12 [Compound 354]
–	6.10	4.54	4.95	5.19	< 6.29	7.37	< 6.29	Cc1c(F)cccc1CN(C)c1cc(C(=O)N(C)[C@@H]2CCNC2)cc2ncc(N3CCOCC3)nc12 [Compound 359]
–	4.93	4.57	5.17	< 4.52	< 6.29	7.38	< 6.29	CC(C)N1CCCN(C(=O)c2cc(NCc3cc(F)cc(F)c3)c3nc(N4CCOCC4)cnc3c2)CC1 [Compound 360]
–	6.31	5.01	5.53	4.72	6.64	8.70	6.58	CNCCN(C)C(=O)c1cc(N(C)Cc2cccc(F)c2C)c2nc(N3CCOCC3)cnc2c1 [Compound 362]
–	5.85	< 4.52	5.27	< 4.52	6.92	8.15	~7.64	CN(C(=O)c1cc(NCc2cc(F)cc(F)c2)c2nc(N3CCOCC3)cnc2c1)[C@H]1CCNC1 [Compound 368]
–	5.28	< 4.52	< 4.52	< 4.52	< 6.29	6.80	< 6.29	CC(C)N1CCCN(C(=O)c2cc(N(C)Cc3cc(F)cc(F)c3)c3nc(N4CCOCC4)cnc3c2)CC1 [Compound 373]
–	6.09	< 4.52	5.01	< 4.52	~7.54	8.70	7.66	CNCCN(C)C(=O)c1cc(C(C)Oc2cc(F)c(F)c(F)c2)c2nc(N3CCOCC3)cnc2c1 (centres unmarked) [Compound 379a]
–	5.42	5.08	5.45	< 4.52	6.68	7.59	6.93	Cc1c(F)cccc1NCc1cc(C(=O)NCCO)cc2ncc(N3CCOCC3)nc12 [Compound 381]
–	6.24	4.80	5.57	4.70	7.70	9.00	8.15	CN(C)CCNC(=O)c1cc(NCc2cc(F)cc(F)c2)c2nc(N3CCOCC3)cnc2c1 [Compound 384]
–	6.46	5.21	6.03	4.78	7.49	9.00	7.70	Cc1c(F)cccc1CNc1cc(C(=O)N(C)CCNC(C)C)cc2ncc(N3CCOCC3)nc12 [Compound 385]
–	6.16	4.83	5.49	4.61	< 6.29	7.82	< 6.29	Cc1c(F)cccc1CN(C)c1cc(C(=O)N(C)CCNC(C)C)cc2ncc(N3CCOCC3)nc12 [Compound 386]
–	5.66	< 4.52	5.50	< 4.52	7.41	8.30	7.55	CC(C)NCCN(C)C(=O)c1cc(NCc2cc(F)cc(F)c2)c2nc(N3CCOCC3)cnc2c1 [Compound 389]
–	5.47	4.92	5.26	4.61	< 6.29	6.60	< 6.29	O=C(NCCO)c1cc(N2CCC2c2ccc(F)cc2)c2nc(N3CCOCC3)cnc2c1 (centres unmarked) [Compound 391]
–	5.69	4.68	5.11	< 4.52	< 6.29	6.92	< 6.29	CC1CN(c2cnc3cc(C(=O)N(C)C)cc(N4CCCC4c4cc(F)cc(F)c4)c3n2)CCO1 (centres unmarked) [Compound 396]
–	5.24	< 4.52	4.97	< 4.52	< 6.29	6.59	< 6.29	CN(C)C(=O)c1cc(N2CCC[C@@H]2c2cc(F)cc(F)c2)c2nc(C3=CCOCC3)cnc2c1 [Compound 398]
